# Publication PMC9814340, “CDK8/19 inhibition plays an important role in pancreatic β-cell induction from human iPSCs” (Stem Cell Research & Therapy, 2023)
# “Also recorded” adds a separate entry of the source. Read-outs that look alike come from different tables or passages of the source.
# What was measured:
# [1] = system: β-cells (INS+NKX6.1+) differentiated from human iPSC line Ff-I14-s04; test: β-cell induction in iPIC differentiation from hiPSCs (compound at stages 5-7), flow cytometry; format: cell-based; details: for proportion of β-cells (INS+NKX6.1+), representative dot plot: Fig. 3a
# Description: For differentiation culture to generate iPICs, we used 2D monolayer to static aggregate culture based on our previous report and 3D stirred-floating aggregate culture. The details of the typical 3D floating culture were as follows.
# PD-166866 (1 μM, Merck Millipore) was added from day 4 of stage 6.
# Stage 7 medium was based on a previous report with our original modifications. […] To generate iPICs for implantation, cells were dissociated and re-sized in an Elplasia 6-well microwell plate (Corning Incorporated, Corning, NY, USA) or a gas-permeable microwell culture bag (Toyo Seikan Group Holdings, Ltd., Yokohama, Japan) and cultured in the stage 7 medium.
# The differentiation efficiency of β-cells (INS^+NKX6.1^+) and endocrine cells (CHGA^+) was analyzed using immunostaining methods and flow cytometry on an LSRFortessa X20 instrument (BD Corporation, Franklin Lakes, NJ, USA), as described previously. The primary antibodies used are detailed in Additional file 1: Table S1. Secondary antibodies were conjugated to Alexa Fluor 488, 546, 568, and 647 of the appropriate species (Thermo Fisher Scientific or Jackson ImmunoResearch, West Grove, PA, USA).
# [2] = target: T1, CDK8 (Homo sapiens, UniProt P49336); set-up: Axcelead Drug Discovery Partners (ran the assay); method as in PMID 28392276; details: cited from earlier work
# T1 sequence (P49336 whole entry, species assumed): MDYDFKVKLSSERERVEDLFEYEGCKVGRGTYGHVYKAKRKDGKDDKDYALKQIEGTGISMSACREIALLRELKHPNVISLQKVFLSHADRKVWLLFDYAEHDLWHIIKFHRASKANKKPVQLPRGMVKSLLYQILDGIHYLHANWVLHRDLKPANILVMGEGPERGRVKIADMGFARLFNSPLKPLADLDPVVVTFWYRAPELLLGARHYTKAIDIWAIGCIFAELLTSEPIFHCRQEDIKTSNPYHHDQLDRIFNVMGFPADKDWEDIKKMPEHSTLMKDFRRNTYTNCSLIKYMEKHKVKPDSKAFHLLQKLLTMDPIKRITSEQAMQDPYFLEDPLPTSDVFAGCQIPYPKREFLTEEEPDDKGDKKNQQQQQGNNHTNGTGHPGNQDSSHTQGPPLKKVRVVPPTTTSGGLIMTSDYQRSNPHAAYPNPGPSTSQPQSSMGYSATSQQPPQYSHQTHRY
# T1 sequence (P24863 whole entry partner, species assumed): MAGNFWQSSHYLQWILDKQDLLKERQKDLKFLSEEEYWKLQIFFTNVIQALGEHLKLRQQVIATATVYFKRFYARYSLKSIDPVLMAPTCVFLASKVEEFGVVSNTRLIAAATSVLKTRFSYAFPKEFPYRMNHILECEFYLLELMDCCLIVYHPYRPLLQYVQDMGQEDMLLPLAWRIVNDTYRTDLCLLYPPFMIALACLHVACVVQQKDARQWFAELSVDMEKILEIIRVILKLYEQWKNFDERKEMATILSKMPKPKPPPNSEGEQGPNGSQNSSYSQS
# [3] = system: Salmonella typhimurium TA1537
# Description: (§1) Salmonella typhimurium TA100, TA1535, TA98, and TA1537, and Escherichia coli WP2uvrA were used to detect either frameshift mutations (TA98 and TA1537) or base pair substitutions (TA100, TA1535, and WP2uvrA). These strains are widely used and recommended for use in ICH S2(R1) for the bacterial reversion assay.
# (§2) In the current study, rat liver S9 fraction, […], was not included because the mutagenicity of compounds should be assessed when simulating cell cultures but not in vivo after metabolism by liver enzymes. Briefly, each tester strain was mixed with seven concentrations (78.1–5000 μg/plate) of each compound and preincubated for 20 min in test tubes. Two plates per dose for the tested compounds and positive control group, and four plates per dose for the negative control group were used. Dimethyl sulfoxide (FUJIFILM Wako) was selected as solvent for the tested compounds and used as negative control. […] Following preincubation, semisolid top agar was added to the tubes, and then, the mixtures were overlaid on minimal glucose agar plates. After the overlaid agar solidified, the plates were stored at 37 °C in an incubator for 48 h.
# (§3) Cultures were examined for signs of compound precipitation and other abnormal conditions by eye. Subsequently, cytotoxicity (decreased background lawn) was assessed using a stereomicroscope. The number of revertant colonies on the plates was counted using an automatic colony analyzer (CA-11, System Science Co., Ltd., Tokyo, Japan) or manually when counting by the automatic colony analyzer was inappropriate, e.g., when precipitation was observed.
# [4] = system: Salmonella typhimurium TA100, TA1535, TA98, and TA1537, and Escherichia coli WP2uvrA; test: Ames mutagenicity assay (bacterial reverse mutation test), five strains, absence of rat liver S9; details: for Ames Mutagenicity: result in words, absence of rat liver S9, 78.1-5000 μg/plate
# Description: as §1, §2, §3
# [5] = target: CDK19 (Homo sapiens, UniProt Q9BWU1); test: biochemical
# CDK19, sequence (Q9BWU1 whole entry, species assumed): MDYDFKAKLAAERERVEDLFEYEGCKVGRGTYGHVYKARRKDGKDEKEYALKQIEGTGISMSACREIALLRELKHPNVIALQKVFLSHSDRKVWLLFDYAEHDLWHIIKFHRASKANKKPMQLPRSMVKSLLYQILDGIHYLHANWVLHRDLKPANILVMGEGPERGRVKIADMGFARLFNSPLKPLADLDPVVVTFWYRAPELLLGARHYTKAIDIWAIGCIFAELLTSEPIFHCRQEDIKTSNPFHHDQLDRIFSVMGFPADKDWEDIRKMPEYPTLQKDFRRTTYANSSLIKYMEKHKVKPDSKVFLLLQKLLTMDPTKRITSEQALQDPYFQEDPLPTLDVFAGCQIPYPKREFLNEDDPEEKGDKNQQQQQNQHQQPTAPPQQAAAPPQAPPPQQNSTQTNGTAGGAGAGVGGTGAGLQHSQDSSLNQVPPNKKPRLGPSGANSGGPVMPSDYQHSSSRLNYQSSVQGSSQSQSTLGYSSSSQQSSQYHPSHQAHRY
# CDK19, sequence (P24863 whole entry partner, species assumed): as the sequence (P24863 whole entry partner, species assumed) above
# Description: (§4) Briefly, BODIPY-FL- or Cy5-FL-conjugated staurosporine derivative that binds to a highly conserved ATP-binding pocket in kinases was used as a fluorescent probe and tested compounds were applied at 0.1 and 1 μM in competitive binding assays for ~ 350 recombinant protein kinases. TR-FRET fluorescent signals from terbium and BODIPY/Cy5-FL were measured using an EnVision plate reader (PerkinElmer, Waltham, MA, USA), and pIC50 values were extrapolated from the inhibition rate.
# [6] = target: T1, CDK8; test: biochemical
# Description: as §4
# [7] = target: RIPK2 (Homo sapiens, UniProt O43353); test: biochemical
# RIPK2, sequence (O43353 whole entry, species assumed): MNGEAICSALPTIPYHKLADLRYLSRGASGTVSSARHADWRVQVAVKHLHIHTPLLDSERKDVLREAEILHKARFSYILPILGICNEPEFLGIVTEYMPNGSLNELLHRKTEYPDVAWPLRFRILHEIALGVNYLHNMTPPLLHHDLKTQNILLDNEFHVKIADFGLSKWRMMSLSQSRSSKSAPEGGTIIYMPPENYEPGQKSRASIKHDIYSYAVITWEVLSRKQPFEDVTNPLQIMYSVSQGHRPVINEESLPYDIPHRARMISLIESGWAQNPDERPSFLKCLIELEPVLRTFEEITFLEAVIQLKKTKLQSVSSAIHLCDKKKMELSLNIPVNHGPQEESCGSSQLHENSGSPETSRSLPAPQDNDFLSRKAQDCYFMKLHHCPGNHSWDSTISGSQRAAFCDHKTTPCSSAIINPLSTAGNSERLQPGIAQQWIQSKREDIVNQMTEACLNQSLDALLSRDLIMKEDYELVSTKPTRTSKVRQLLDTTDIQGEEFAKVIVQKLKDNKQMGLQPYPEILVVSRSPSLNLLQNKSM
# Description: as §4
# [8] = target: TNIK (Homo sapiens, UniProt Q9UKE5); test: biochemical
# TNIK, sequence (Q9UKE5 whole entry, species assumed): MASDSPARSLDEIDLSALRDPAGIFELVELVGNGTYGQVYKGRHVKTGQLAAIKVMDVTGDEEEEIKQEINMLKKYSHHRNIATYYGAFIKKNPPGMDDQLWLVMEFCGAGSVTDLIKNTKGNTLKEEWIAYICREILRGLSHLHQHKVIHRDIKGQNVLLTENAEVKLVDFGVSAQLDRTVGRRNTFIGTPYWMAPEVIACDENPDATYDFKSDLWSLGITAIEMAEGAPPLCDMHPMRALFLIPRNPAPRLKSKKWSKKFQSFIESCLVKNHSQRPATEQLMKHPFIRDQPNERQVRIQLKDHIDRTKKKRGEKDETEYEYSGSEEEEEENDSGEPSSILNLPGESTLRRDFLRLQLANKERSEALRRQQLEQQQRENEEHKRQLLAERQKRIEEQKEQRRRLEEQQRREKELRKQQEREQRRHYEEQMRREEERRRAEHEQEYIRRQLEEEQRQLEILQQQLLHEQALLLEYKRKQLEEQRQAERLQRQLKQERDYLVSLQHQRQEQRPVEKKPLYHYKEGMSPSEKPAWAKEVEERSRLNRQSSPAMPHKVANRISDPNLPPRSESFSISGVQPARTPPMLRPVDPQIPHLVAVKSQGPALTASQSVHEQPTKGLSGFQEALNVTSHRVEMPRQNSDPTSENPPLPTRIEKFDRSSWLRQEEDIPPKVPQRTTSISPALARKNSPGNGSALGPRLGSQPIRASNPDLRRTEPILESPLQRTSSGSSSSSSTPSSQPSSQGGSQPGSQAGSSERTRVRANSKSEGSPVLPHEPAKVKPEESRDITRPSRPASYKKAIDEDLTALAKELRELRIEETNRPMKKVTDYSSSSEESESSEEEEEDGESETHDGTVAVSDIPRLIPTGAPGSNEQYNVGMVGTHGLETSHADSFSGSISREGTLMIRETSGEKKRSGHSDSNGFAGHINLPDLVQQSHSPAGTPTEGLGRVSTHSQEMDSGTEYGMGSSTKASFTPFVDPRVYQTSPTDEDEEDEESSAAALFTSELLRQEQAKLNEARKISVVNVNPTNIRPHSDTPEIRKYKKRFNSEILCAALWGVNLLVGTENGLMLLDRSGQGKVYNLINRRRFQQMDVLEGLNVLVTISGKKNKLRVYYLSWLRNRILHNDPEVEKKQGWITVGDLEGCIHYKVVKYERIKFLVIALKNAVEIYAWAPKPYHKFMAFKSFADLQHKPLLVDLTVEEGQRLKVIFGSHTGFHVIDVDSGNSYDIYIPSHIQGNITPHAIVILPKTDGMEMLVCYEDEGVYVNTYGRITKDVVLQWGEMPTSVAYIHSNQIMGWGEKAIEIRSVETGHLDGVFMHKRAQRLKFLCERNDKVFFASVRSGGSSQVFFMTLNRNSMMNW
# Description: as §4
# [9] = target: TGFBR2 (Homo sapiens, UniProt P37173); test: biochemical
# TGFBR2, sequence (P37173 23-567, species assumed): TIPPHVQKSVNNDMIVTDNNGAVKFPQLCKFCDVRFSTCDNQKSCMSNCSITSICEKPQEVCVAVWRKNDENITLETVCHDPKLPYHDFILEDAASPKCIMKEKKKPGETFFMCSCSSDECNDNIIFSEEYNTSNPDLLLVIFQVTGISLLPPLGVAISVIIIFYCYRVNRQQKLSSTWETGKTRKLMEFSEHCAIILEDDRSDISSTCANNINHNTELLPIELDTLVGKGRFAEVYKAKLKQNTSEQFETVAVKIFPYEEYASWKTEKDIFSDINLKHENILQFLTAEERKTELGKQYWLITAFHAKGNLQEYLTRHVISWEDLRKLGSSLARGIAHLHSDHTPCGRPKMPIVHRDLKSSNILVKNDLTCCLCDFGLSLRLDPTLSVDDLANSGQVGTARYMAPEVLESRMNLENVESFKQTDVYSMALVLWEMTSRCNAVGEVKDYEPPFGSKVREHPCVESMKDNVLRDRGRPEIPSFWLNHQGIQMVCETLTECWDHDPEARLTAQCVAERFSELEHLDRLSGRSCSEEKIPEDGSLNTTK
# Description: as §4
# [10] = target: T2, ALK5 (Homo sapiens, UniProt P36897); test: TR-FRET-based competitive binding kinase profiling assay; details: Yes/No summary of Fig. 1d; method not given
# T2 construct: Axcelead Drug Discovery Partners (ran the assay)
# T2 sequence (P36897 34-503): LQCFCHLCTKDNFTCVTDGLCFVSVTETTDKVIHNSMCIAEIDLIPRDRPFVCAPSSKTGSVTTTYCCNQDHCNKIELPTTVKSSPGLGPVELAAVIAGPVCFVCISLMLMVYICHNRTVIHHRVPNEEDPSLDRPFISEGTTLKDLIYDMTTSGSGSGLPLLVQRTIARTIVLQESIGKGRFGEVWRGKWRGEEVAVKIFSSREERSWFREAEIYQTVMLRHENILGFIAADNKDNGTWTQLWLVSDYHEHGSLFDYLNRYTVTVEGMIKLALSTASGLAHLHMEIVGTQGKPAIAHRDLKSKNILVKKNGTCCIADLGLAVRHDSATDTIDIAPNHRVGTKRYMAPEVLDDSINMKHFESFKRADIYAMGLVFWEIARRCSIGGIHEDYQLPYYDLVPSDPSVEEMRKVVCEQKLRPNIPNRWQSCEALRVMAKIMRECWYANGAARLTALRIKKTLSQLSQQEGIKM
smiles,measurement,setting,value
CN(C)C(=O)Cn1cc(-c2ccc(-c3cncc4ccccc34)cc2)cn1 [BI-1347],"proportion of β-cells (INS+NKX6.1+), representative dot plot","[1]; 3 nM, instead of ALK5iII, stages 5-7",39.8%
Cn1cc(-c2ccnc(O)c2/C=C/C(=O)Nc2ccc(CN3CCOCC3)cc2)cn1 [TR05978156],β-cell induction / differentiation efficiency,"[1]; result in words, compound replaces ALK5iII at stages 5-7",did not induce β-cells efficiently
same,IC50,[2],> 10000 nM
"COc1ccc2nc3cc(Cl)ccc3c(NCCCNCCCl)c2c1.Cl.Cl [ICR, [6-Chloro-9-(3-[2-chloroethylamino]propylamino)-2-methoxyacridine] dihydrochloride]","TA1537, -S9 # colony","[3]; positive control, 1.0 μg",1804
CN1CCN(C(=O)c2ccc3cc(CCNc4ncnc5ccc(C#N)cc45)ccc3c2)CC1 [Senexin B],"proportion of β-cells (INS+NKX6.1+), representative dot plot","[1]; 0.1 μM, instead of ALK5iII, stages 5-7",39.7%
NC(=O)c1ccc(-c2nc(-c3ccc4c(c3)OCO4)c(-c3ccccn3)[nH]2)cc1 [SB431542],Ames Mutagenicity,[4],did not have mutagenic potential; also recorded: negative
O=C(/C=C/c1cnccc1-c1cnn(C2CC2)c1)Nc1ccc(CN2CCOCC2)cc1 [TR06096159],IC50,[2],6.4 nM
Cc1cccc(-c2n[nH]cc2-c2ccc3ncccc3n2)n1 [ALK5iII],IC50,[5],66.1 nM
same,IC50,[6],158 nM
same,IC50,[7],151 nM
same,IC50,[8],661 nM
same,IC50,[9],107 nM
same,ALK5 inhibition,[10],Yes
same,Ames mutagenicity test,"[4]; Fig. 1b flowchart, absence of S9, positive = mean revertant colonies at least twofold the negative control in any strain",(+)
same,Ames Mutagenicity,[4],Positive
same,"proportion of β-cells (INS+NKX6.1+), representative dot plot",[1]; 10 μM ALK5iII at stages 5-7,35.0%
same,Ames response in the TA1537 strain,[3],positive response
same,"TA1537, -S9 # colony",[3]; Salmonella typhimurium,8
c1cncc(-c2n[nH]cc2-c2cnc3ccccc3n2)c1 [TR04411299],ALK5 inhibition,[10],No and did not inhibit ALK5
same,Ames Mutagenicity,[4],positive result
same,"TA1537, -S9 # colony","[3]; 78.1 μg/plate, DMSO control 8 (ALK5 inhibitor II) / 9 (TR04411299)",5
same,"TA1537, -S9 # colony","[3]; 156 μg/plate, DMSO control 8 / 9",9
same,"TA1537, -S9 # colony","[3]; 313 μg/plate, DMSO control 8 / 9",21
same,"TA1537, -S9 # colony","[3]; 625 μg/plate, DMSO control 8 / 9",45
same,"TA1537, -S9 # colony","[3]; 1250 μg/plate, DMSO control 8 / 9",82
same,"TA1537, -S9 # colony","[3]; 2500 μg/plate, DMSO control 8 / 9",128
same,"TA1537, -S9 # colony","[3]; 5000 μg/plate, DMSO control 8 / 9",194
"Cl.Nc1c2ccccc2nc2ccccc12.O [9-AA, 9-aminoacridine hydrochloride monohydrate]","TA1537, -S9 # colony","[3]; positive control, 80 μg",169
Cc1cccc(-c2[nH]c(C(C)(C)C)nc2-c2ccc3nccnc3c2)n1 [SB525334],Ames Mutagenicity,[4],Negative; also recorded: did not have mutagenic potential
